Key:
[1] = DRUGMATRIX: Purinergic P2X radioligand binding (ligand: [3H] alpha, beta-Methylene-ATP); assay type: cell membranes, Oryctolagus cuniculus, New Zealand albino, Urinary bladder, Membrane; settings: Not Active = under 50% inhibition at 10 µM
[2] = target: Mitogen-activated protein kinase 3 (Homo sapiens, UniProt P27361); test: DRUGMATRIX: Protein Serine/Threonine Kinase, ERK1 enzyme inhibition (substrate: Myelin Basic Protein); parameters: species or system Escherichia coli; settings: Not Active = under 50% inhibition at 10 µM
Mitogen-activated protein kinase 3, sequence (P27361 whole entry): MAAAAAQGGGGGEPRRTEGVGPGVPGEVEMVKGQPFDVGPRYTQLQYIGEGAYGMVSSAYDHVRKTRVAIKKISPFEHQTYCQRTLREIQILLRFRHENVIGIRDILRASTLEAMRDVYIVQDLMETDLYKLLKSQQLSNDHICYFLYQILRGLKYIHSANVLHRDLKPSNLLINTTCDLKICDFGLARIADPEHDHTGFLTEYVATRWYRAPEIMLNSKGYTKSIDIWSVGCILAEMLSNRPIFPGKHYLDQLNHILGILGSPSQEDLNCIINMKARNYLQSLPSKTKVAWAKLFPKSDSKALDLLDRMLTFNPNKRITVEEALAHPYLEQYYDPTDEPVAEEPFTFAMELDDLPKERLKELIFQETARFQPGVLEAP

[3] = target: T1, 5-hydroxytryptamine receptor 1A (Rattus norvegicus, UniProt P19327); assay type: cell membranes, CHO-K1, Membrane; settings: cho-k1; further: in other assays of this panel Not Active means under 50% inhibition at 10 µM
T1 sequence (P19327 whole entry): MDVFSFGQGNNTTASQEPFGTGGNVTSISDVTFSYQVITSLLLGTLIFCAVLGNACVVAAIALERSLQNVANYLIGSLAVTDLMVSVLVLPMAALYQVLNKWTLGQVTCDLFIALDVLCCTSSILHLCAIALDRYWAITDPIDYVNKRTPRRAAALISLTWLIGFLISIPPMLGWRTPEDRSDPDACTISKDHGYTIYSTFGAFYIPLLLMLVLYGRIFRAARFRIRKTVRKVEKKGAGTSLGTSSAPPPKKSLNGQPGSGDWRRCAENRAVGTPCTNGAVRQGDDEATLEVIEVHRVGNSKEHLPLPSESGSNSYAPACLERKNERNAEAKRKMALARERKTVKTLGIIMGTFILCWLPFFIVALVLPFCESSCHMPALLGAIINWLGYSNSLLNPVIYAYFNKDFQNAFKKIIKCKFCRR

Nitric oxide synthase 1 = Nitric oxide synthase 1 (Rattus norvegicus, UniProt P29476); assay type: tissue-based, Cerebellum; further: in other assays of this panel Not Active means under 50% inhibition at 10 µM
Nitric oxide synthase 1, sequence (P29476 whole entry): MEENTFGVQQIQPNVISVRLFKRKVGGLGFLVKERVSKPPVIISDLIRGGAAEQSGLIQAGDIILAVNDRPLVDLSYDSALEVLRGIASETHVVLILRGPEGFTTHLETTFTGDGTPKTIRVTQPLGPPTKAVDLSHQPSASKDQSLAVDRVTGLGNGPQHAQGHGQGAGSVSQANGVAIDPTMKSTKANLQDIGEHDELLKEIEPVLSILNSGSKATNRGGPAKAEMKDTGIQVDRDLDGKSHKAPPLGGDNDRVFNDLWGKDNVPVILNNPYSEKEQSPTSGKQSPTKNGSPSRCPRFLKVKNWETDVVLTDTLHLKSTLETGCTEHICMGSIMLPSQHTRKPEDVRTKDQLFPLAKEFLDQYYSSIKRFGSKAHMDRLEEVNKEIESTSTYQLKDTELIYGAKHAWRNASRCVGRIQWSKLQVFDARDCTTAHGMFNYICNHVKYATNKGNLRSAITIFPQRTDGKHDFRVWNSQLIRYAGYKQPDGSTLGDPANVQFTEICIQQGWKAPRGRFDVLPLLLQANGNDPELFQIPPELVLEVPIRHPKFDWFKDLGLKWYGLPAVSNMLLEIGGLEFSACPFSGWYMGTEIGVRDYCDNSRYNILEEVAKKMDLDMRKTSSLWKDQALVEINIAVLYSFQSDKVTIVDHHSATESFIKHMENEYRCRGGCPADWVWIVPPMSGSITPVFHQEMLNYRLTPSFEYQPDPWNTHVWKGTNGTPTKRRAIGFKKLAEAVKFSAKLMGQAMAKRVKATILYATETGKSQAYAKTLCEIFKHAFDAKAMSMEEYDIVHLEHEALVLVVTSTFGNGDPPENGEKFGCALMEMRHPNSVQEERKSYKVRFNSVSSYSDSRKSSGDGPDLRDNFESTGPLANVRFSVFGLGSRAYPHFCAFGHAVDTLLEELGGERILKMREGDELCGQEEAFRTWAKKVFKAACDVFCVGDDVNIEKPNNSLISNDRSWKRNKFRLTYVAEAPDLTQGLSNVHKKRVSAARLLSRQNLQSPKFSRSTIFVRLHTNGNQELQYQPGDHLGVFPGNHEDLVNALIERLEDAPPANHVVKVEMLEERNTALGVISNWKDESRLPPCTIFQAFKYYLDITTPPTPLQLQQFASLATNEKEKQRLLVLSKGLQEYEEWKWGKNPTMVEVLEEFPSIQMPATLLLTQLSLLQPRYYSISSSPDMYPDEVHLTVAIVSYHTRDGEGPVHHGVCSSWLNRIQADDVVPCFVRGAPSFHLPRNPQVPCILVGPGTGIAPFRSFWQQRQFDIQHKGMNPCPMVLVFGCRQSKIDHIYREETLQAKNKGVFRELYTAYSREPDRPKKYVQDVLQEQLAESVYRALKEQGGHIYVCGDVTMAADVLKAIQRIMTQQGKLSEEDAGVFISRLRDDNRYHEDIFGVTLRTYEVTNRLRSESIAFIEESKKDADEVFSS

Calcitonin receptor = target: T2, Calcitonin receptor (Homo sapiens, UniProt P30988); assay type: cell membranes, Membrane; settings: t47d; further: in other assays of this panel Not Active means under 50% inhibition at 10 µM
T2 sequence (P30988 whole entry): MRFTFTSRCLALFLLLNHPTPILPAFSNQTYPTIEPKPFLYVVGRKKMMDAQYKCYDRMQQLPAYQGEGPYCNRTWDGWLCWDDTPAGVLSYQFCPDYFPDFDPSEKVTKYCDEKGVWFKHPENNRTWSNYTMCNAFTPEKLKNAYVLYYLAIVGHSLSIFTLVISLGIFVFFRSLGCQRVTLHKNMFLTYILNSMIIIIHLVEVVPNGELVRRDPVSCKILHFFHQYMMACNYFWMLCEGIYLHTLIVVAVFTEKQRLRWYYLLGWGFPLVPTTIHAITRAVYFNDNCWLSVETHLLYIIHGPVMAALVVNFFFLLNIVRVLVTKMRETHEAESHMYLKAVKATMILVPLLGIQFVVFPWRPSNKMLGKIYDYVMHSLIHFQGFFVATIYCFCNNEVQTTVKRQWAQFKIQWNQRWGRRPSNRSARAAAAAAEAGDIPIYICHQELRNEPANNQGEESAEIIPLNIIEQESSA

[4] = DRUGMATRIX: GABAA, Muscimol, Central radioligand binding (ligand: [3H] Muscimol); assay type: cell membranes, Rattus norvegicus, Wistar, Brain, Membrane; settings: Not Active = under 50% inhibition at 10 µM
[5] = DRUGMATRIX: GABAA, Chloride Channel, TBOB radioligand binding (ligand: [3H] TBOB); assay type: cell membranes, Rattus norvegicus, Wistar, Cerebral cortex, Membrane; settings: Not Active = under 50% inhibition at 10 µM
[6] = target: Platelet-activating factor receptor (Homo sapiens, UniProt P25105); assay type: tissue-based; further: in other assays of this panel Not Active means under 50% inhibition at 10 µM
Platelet-activating factor receptor, sequence (P25105 whole entry): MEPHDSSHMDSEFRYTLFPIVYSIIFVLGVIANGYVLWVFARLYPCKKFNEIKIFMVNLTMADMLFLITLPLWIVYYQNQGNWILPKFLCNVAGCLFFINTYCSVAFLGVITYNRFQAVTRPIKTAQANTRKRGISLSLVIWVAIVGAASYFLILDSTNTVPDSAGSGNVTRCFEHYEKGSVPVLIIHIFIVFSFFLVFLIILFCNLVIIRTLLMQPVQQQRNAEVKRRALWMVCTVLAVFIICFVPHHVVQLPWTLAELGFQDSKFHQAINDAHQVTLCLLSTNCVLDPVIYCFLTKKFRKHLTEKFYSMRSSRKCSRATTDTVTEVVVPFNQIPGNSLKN

Compound	IC50 [1]	Ki [1]	IC50 [2]	IC50 [3]	IC50 (Nitric oxide synthase 1)	IC50 (Calcitonin receptor)	IC50 [4]	Ki [4]	IC50 [5]	Ki [5]	IC50 [6]	IC50 ([2]; read-out: IC50)
CC[C@@]1(O)C(=O)OCc2c1cc1n(c2=O)Cc2cc3c(CN(C)C)c(O)ccc3nc2-1 [TOPOTECAN]	Not Active	Not Active	Not Active	Not Active	Not Active	Not Active	Not Active	Not Active	Not Active	Not Active	Not Active	–
C#C[C@]1(O)CC[C@H]2[C@@H]3[C@H](C)CC4=C(CCC(=O)C4)[C@H]3CC[C@@]21C [TIBOLONE]	Not Active	Not Active	Not Active	Not Active	Not Active	Not Active	Not Active	Not Active	Not Active	Not Active	Not Active	–
Oc1ccc(/C=C/c2cc(O)cc(O)c2)cc1 [RESVERATROL]	Not Active	Not Active	Not Active	Not Active	Not Active	Not Active	Not Active	Not Active	Not Active	Not Active	Not Active	–
Cc1ccc(Cl)c(Nc2ccccc2C(=O)O)c1Cl [MECLOFENAMIC ACID]	Not Active	Not Active	Not Active	Not Active	Not Active	Not Active	Not Active	Not Active	Not Active	Not Active	Not Active	–
Cc1ccnc(NS(=O)(=O)c2ccc(N)cc2)n1 [SULFAMERAZINE]	Not Active	Not Active	Not Active	Not Active	Not Active	Not Active	Not Active	Not Active	Not Active	Not Active	Not Active	–
CCOc1cc(N)c(Cl)cc1C(=O)NCC1CN(Cc2ccc(F)cc2)CCO1 (stereo not given) [MOSAPRIDE]	Not Active	Not Active	Not Active	Not Active	Not Active	Not Active	Not Active	Not Active	Not Active	Not Active	Not Active	–
C[C@]12CCC(=O)C[C@@H]1CC[C@@H]1[C@@H]2CC[C@]2(C)[C@@H](O)CC[C@@H]12 [STANOLONE]	Not Active	Not Active	Not Active	Not Active	Not Active	Not Active	Not Active	Not Active	Not Active	Not Active	Not Active	–
C[N+]1(C)[C@@H]2C[C@@H](OC(=O)[C@H](CO)c3ccccc3)C[C@H]1[C@@H]1O[C@@H]12.[Br-] [METHSCOPOLAMINE BROMIDE]	Not Active	Not Active	Not Active	Not Active	Not Active	Not Active	Not Active	Not Active	Not Active	Not Active	Not Active	–
OC[C@@H](O)[C@@H](O)[C@H](O)[C@H](O)CO [MANNITOL]	Not Active	Not Active	Not Active	Not Active	Not Active	Not Active	Not Active	Not Active	Not Active	Not Active	Not Active	–
O=C(O)c1cc(/N=N/c2ccc(S(=O)(=O)Nc3ccccn3)cc2)ccc1O [SULFASALAZINE]	Not Active	Not Active	Not Active	Not Active	Not Active	Not Active	Not Active	Not Active	Not Active	Not Active	Not Active	–
CC1=C(/C=C/C(C)=C/C=C/C(C)=C/C(=O)O)C(C)(C)CCC1 [TRETINOIN]	Not Active	Not Active	Not Active	Not Active	Not Active	Not Active	Not Active	Not Active	Not Active	Not Active	Not Active	–
CC[C@H](C)C(=O)O[C@H]1CCC=C2C=C[C@H](C)[C@H](CC[C@@H]3C[C@@H](O)CC(=O)O3)[C@H]21 [MEVASTATIN]	Not Active	Not Active	Not Active	Not Active	Not Active	Not Active	Not Active	Not Active	Not Active	Not Active	Not Active	–
CCN(CC)C(=S)SSC(=S)N(CC)CC	Not Active	Not Active	–	Not Active	Not Active	Not Active	Not Active	Not Active	Not Active	Not Active	Not Active	1510 nM
O=[As][O-].[Na+] [SODIUM ARSENITE]	Not Active	Not Active	Not Active	Not Active	Not Active	Not Active	Not Active	Not Active	Not Active	Not Active	Not Active	–
CCN(CC)N=O [N-NITROSODIETHYLAMINE]	Not Active	Not Active	Not Active	Not Active	Not Active	Not Active	Not Active	Not Active	Not Active	Not Active	Not Active	–
Nc1nc(N)c2nc(-c3ccccc3)c(N)nc2n1	Not Active	Not Active	Not Active	Not Active	Not Active	Not Active	Not Active	Not Active	Not Active	Not Active	Not Active	–
CCN(CC)CCNC(=O)c1cc(Cl)c(N)cc1OC [METOCLOPRAMIDE]	Not Active	Not Active	Not Active	Not Active	Not Active	Not Active	Not Active	Not Active	Not Active	Not Active	Not Active	–
Cc1cc2c(s1)Nc1ccccc1N=C2N1CCN(C)CC1 [OLANZAPINE]	–	–	Not Active	Not Active	Not Active	Not Active	–	–	–	–	Not Active	–
Cc1nnc(NS(=O)(=O)c2ccc(N)cc2)s1 [SULFAMETHIZOLE]	Not Active	Not Active	Not Active	Not Active	Not Active	Not Active	Not Active	Not Active	Not Active	Not Active	Not Active	–
CC#C[C@]1(O)CC[C@H]2[C@@H]3CCC4=CC(=O)CCC4=C3[C@@H](c3ccc(N(C)C)cc3)C[C@@]21C [MIFEPRISTONE]	Not Active	Not Active	Not Active	Not Active	Not Active	Not Active	Not Active	Not Active	Not Active	Not Active	Not Active	–
CS(=O)(=O)c1ccc(C2=C(c3ccccc3)C(=O)OC2)cc1 [ROFECOXIB]	Not Active	Not Active	Not Active	Not Active	Not Active	Not Active	Not Active	Not Active	Not Active	Not Active	Not Active	–
CC1(C)[C@H](C(=O)O)N2C(=O)C[C@H]2S1(=O)=O [SULBACTAM]	Not Active	Not Active	Not Active	Not Active	Not Active	Not Active	Not Active	Not Active	Not Active	Not Active	Not Active	–
CNCCCC12CCC(c3ccccc31)c1ccccc12 [MAPROTILINE]	–	–	Not Active	Not Active	Not Active	Not Active	–	–	–	–	Not Active	–
CN(C)CCC=C1c2ccccc2COc2ccccc21 [DOXEPIN]	–	–	Not Active	–	Not Active	Not Active	–	–	–	–	Not Active	–

Source: ChEMBL document CHEMBL1909046, “DrugMatrix in vitro pharmacology data”
